From PubChem BioAssay (NCI)
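Compound exposure: 48 hours, 5 concentrations, 96-well plates. GI50 = concentration required for 50% inhibition of growth. TGI marks complete inhibition of growth.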

Tests used:
Assay in all cases: DTP human tumour cell line panel, 48 h
[1] = system: ACHN renal
[2] = system: HCT-116 colon
[3] = system: DU-145 prostate
[4] = system: K-562 leukemia
[5] = system: MCF7 breast
[6] = system: RPMI-8226 leukemia
[7] = system: OVCAR-3 ovarian
[8] = system: MDA-N
[9] = system: NCI-H460 lung
[10] = system: COLO 205 colon
[11] = system: SK-OV-3 ovarian
[12] = system: U251 CNS
[13] = system: HS 578T breast
[14] = system: EKVX NSCLC
[15] = system: A549 NSCLC
[16] = system: HCT-15 colon
[17] = system: UACC-257 melanoma
[18] = system: 786-0 renal
[19] = system: HOP-92 NSCLC
[20] = system: PC-3 prostate
[21] = system: SN12C renal
[22] = system: BT-549 breast
[23] = system: KM12 colon
[24] = system: M14 melanoma
[25] = system: T-47D breast
[26] = system: UACC-62 melanoma
[27] = system: SK-MEL-5 melanoma
[28] = system: MOLT-4 leukemia
[29] = system: SK-MEL-28 melanoma
[30] = system: HOP-62 NSCLC
[31] = system: OVCAR-5 ovarian
[32] = system: HT29 colon
[33] = system: CCRF-CEM leukemia
[34] = system: NCI/ADR-RES ovarian
[35] = system: UO-31 renal
[36] = system: SNB-75 CNS
[37] = system: SNB-19 CNS
[38] = system: TK-10 renal
[39] = system: OVCAR-4 ovarian
[40] = system: SR leukemia
[41] = system: MDA-MB-435
[42] = system: HL-60(TB) leukemia
[43] = system: SW-620 colon
[44] = system: CAKI-1 renal
[45] = system: LOX IMVI melanoma
[46] = system: A498 renal
[47] = system: OVCAR-8 ovarian
[48] = system: MDA-MB-231 breast
[49] = system: IGROV1 ovarian
[50] = system: SF-539 CNS
[51] = system: SK-MEL-2 melanoma
[52] = system: NCI-H226 lung
[53] = system: MALME-3M melanoma
[54] = system: RXF 393 renal
[55] = system: HCC-2998 colon
[56] = system: NCI-H522 lung
[57] = system: SF-295 CNS
[58] = system: SF-268 CNS
[59] = system: NCI-H23 lung

For `O=C(O)CN1CCNCCNCC1`, the TGI [1] was greater than 100 µM, the TGI [2] was greater than 100 µM and the TGI [3] was greater than 100 µM. For the same compound, the TGI [4] was greater than 100 µM, the TGI [5] was greater than 100 µM and the TGI [6] was greater than 100 µM. The TGI [7] was greater than 100 µM, the TGI [8] was greater than 100 µM and the TGI [9] was greater than 100 µM. For the same compound, the TGI [10] was greater than 100 µM, the TGI [11] was greater than 100 µM and the TGI [12] was greater than 100 µM. For the same compound, the TGI [13] was greater than 100 µM, the TGI [14] was greater than 100 µM and the TGI [15] was greater than 100 µM. For the same compound, the TGI [16] was greater than 100 µM, the TGI [17] was greater than 100 µM and the TGI [18] was greater than 100 µM. For the same compound, the TGI [19] was greater than 100 µM, the TGI [20] was greater than 100 µM and the TGI [21] was greater than 100 µM. The TGI [22] was greater than 100 µM, the TGI [23] was greater than 100 µM and the TGI [24] was greater than 100 µM. For the same compound, the TGI [25] was greater than 100 µM, the TGI [26] was greater than 100 µM and the TGI [27] was greater than 100 µM. The TGI [28] was greater than 100 µM, the TGI [29] was greater than 100 µM and the TGI [30] was greater than 100 µM. The TGI [31] was greater than 100 µM, the TGI [32] was greater than 100 µM and the TGI [33] was greater than 100 µM. The TGI [34] was greater than 100 µM, the TGI [35] was greater than 100 µM and the TGI [36] was greater than 100 µM. It also gave a TGI [37] greater than 100 µM, a TGI [38] greater than 100 µM and a TGI [39] greater than 100 µM. It also gave a TGI [40] greater than 100 µM, a TGI [41] greater than 100 µM and a TGI [42] of 68.5 µM. The TGI [43] was greater than 100 µM, the TGI [44] was greater than 100 µM and the TGI [45] was greater than 100 µM. The TGI [46] was greater than 100 µM, the TGI [47] was greater than 100 µM and the TGI [48] was greater than 100 µM. It also gave a TGI [49] greater than 100 µM, a TGI [50] greater than 100 µM and a TGI [51] greater than 100 µM. It also gave a TGI [52] greater than 100 µM.
Work on `NC(N)=NS(=O)(=O)c1ccc(Nc2c3ccccc3nc3c(C(=O)NNCCO)cccc23)cc1` yielded a TGI [1] greater than 1 µM, a TGI [2] of 0.354 µM and a TGI [3] greater than 1 µM. It also gave a TGI [4] of 0.422 µM, a TGI [5] of 0.241 µM and a TGI [53] of 0.273 µM. It also gave a TGI [6] of 0.42 µM, a TGI [7] of 0.269 µM and a TGI [8] of 0.504 µM. The TGI [9] was 0.341 µM, the TGI [10] was 0.351 µM and the TGI [11] was greater than 1 µM. For the same compound, the TGI [12] was 0.269 µM, the TGI [13] was greater than 1 µM and the TGI [14] was greater than 1 µM. The TGI [15] was greater than 1 µM, the TGI [16] was greater than 1 µM and the TGI [17] was greater than 1 µM. For the same compound, the TGI [18] was greater than 1 µM, the TGI [19] was greater than 1 µM and the TGI [20] was greater than 1 µM. It also gave a TGI [21] greater than 1 µM, a TGI [22] of 0.303 µM and a TGI [23] of 0.287 µM. It also gave a TGI [24] of 0.456 µM, a TGI [25] of 0.296 µM and a TGI [26] greater than 1 µM. The TGI [27] was 0.278 µM, the TGI [28] was greater than 1 µM and the TGI [29] was greater than 1 µM. It also gave a TGI [54] of 0.756 µM, a TGI [30] of 0.536 µM and a TGI [31] greater than 1 µM. The TGI [55] was 0.462 µM, the TGI [56] was 0.28 µM and the TGI [32] was 0.933 µM. For the same compound, the TGI [33] was greater than 1 µM, the TGI [34] was greater than 1 µM and the TGI [35] was greater than 1 µM. It also gave a TGI [57] greater than 1 µM, a TGI [37] greater than 1 µM and a TGI [38] greater than 1 µM. For the same compound, the TGI [39] was greater than 1 µM, the TGI [58] was 0.307 µM and the TGI [41] was 0.446 µM. The TGI [42] was 0.671 µM, the TGI [59] was 0.28 µM and the TGI [43] was 0.377 µM. The TGI [44] was 0.912 µM, the TGI [45] was 0.375 µM and the TGI [46] was greater than 1 µM. The TGI [47] was greater than 1 µM, the TGI [48] was 0.731 µM and the TGI [49] was 0.434 µM. The TGI [50] was greater than 1 µM, the TGI [51] was 0.311 µM and the TGI [52] was 0.42 µM.
`CCC(Cc1cnc2nc(N)nc(N)c2n1)c1ccc(C(=O)NC(CCC(=O)O)C(=O)O)cc1` (stereo not drawn) showed a TGI [1] greater than 100 µM, a TGI [2] greater than 100 µM and a TGI [3] greater than 100 µM. It also gave a TGI [4] greater than 100 µM, a TGI [5] greater than 100 µM and a GI50 [7] greater than 100 µM. The TGI [7] was greater than 100 µM, the TGI [8] was greater than 100 µM and the TGI [9] was greater than 100 µM. It also gave a TGI [10] greater than 100 µM, a TGI [13] greater than 100 µM and a GI50 [14] of 0.0196 µM. For the same compound, the TGI [14] was greater than 100 µM, the TGI [15] was greater than 100 µM and the TGI [16] was greater than 100 µM. The TGI [17] was greater than 100 µM, the TGI [18] was greater than 100 µM and the TGI [20] was greater than 100 µM. For the same compound, the TGI [21] was greater than 100 µM, the TGI [22] was greater than 100 µM and the TGI [23] was greater than 100 µM. It also gave a GI50 [24] of 34.5 µM, a TGI [24] greater than 100 µM and a TGI [25] greater than 100 µM. It also gave a TGI [27] greater than 100 µM, a TGI [28] greater than 100 µM and a GI50 [29] greater than 100 µM. It also gave a TGI [29] greater than 100 µM, a TGI [30] greater than 100 µM and a TGI [31] greater than 100 µM. For the same compound, the TGI [56] was greater than 100 µM, the TGI [32] was greater than 100 µM and the TGI [33] was greater than 100 µM. The TGI [34] was greater than 100 µM, the TGI [35] was greater than 100 µM and the TGI [36] was greater than 100 µM. For the same compound, the TGI [57] was greater than 100 µM, the GI50 [37] was 0.0134 µM and the TGI [37] was greater than 100 µM. It also gave a TGI [38] greater than 100 µM, a GI50 [39] greater than 100 µM and a TGI [39] greater than 100 µM. For the same compound, the TGI [40] was greater than 100 µM, the TGI [58] was greater than 100 µM and the TGI [41] was greater than 100 µM. For the same compound, the TGI [42] was greater than 100 µM, the TGI [59] was greater than 100 µM and the TGI [43] was greater than 100 µM. The TGI [44] was greater than 100 µM, the TGI [45] was greater than 100 µM and the TGI [46] was greater than 100 µM. For the same compound, the TGI [47] was greater than 100 µM, the GI50 [48] was greater than 100 µM and the TGI [48] was greater than 100 µM. The TGI [50] was 1.28 µM, the GI50 [51] was greater than 100 µM and the TGI [51] was greater than 100 µM. For the same compound, the GI50 [52] was greater than 100 µM and the TGI [52] was greater than 100 µM.
